Laboratory results reported in patent publication US20240329033A1, “MonoMac-1 Cells Expressing CD16 and CD163” (Temple University-Of The Commonwealth System of Higher …, priority 2016, published 2024).

Experiments:
Type in all cases: cell-based, human
MONO-MAC-1 cells = assay: Flow cytometry of CD163, CD16 and CD4 expression in differentiated MONO-MAC-1 cells; conditions: for expression of CD163+ / expression of CD16+: added for 24 hours to MonoMac-1 treated with PMA+DEX+MCSF+LPS; for expression of CD163+: FIG. 6A; for expression of CD16+: FIG. 6B
Method: MONO-MAC-1 cells were cultured at 37° C. in a humidified atmosphere containing 5% CO2 using RPM1 1640 medium supplemented with 10% heat-inactivated fetal bovine serum (FBS, Sigma) and 1% of stable glutamine, 1 mM sodium pyruvic acid and 1×MEM non-essential amino acids were added. Cells were seeded at a density of 0.5×10^6 cells/ml and were sub cultured upon reaching 1× 10^6 cells/ml. Medium was changed every 2 to 3 days. […] Data were analyzed with GraphPad Prism (version 6) soft-ware. Flow cytometric measurements were performed using four colors FACSCalibur (Becton Dickinson).

[1] = test system: tryptophan catabolism/IDO activity in MonoMac-1; assay: Tryptophan catabolism/IDO activity (kynurenine/tryptophan in cell culture supernatant) in MonoMac-1; conditions: for kynurenine/tryptophan ratio: cell culture supernatant, FIG. 7C
Excerpt: A major mechanism for inflammation and disease pathogenesis involves tryptophan catabolism via the kynurenine pathway. As such we evaluated cytokine inducers of IDO enzyme induction, a limiting step in the kynurenine pathway.
TNF α and IFN γ induce tryptophan catabolism/IDO activity as determined by increase in the kynurenine/tryptophan ratio in cell culture supernatant, in response to TNF alpha and IFN gamma treatment (FIG. 7).

MCP-1 = MCP-1 concentration in MonoMac-1 culture; conditions: FIG. 8
[2] = induction: PMA 20 ng/ml ± LPS 10 ng/ml 3 days, then MCSF 5 ng/ml + DEX 200 ng/ml 4 days, FIG. 1A

| Molecule | expression of CD163+ monocytes (MONO-MAC-1 cells; [2]) | expression of CD163+ (MONO-MAC-1 cells) | expression of CD16+ (MONO-MAC-1 cells) | kynurenine/tryptophan ratio [1] | MCP-1 concentration (MCP-1) | further results |
| --- | --- | --- | --- | --- | --- | --- |
| lipopolysaccharide [LPS, reference compound] | has the most effect | – | – | – | – | percentage of CD16+CD163+ monocytes (MONO-MAC-1 cells; induction: PMA ± LPS 3 days, then DEX+MCSF 4 days, FIG. 2, FIG. 3): required to have maximum effect |
| TNF α | – | further increase the expression | further increase the expression | increase | increase MCP-1 | – |
| FC(F)(F)c1ccc(CNc2ccc(Cc3c[nH]c4ncc(Cl)cc34)cn2)cn1 [PLX3397, reference compound] | – | – | – | – | – | expression of CD16+ monocytes (MONO-MAC-1 cells; antagonist 500 nM added after PMA/LPS 72 h and 4 days MCSF+DEX, FIG. 4A): reduction in expression; expression of CD4+ monocytes (MONO-MAC-1 cells; antagonist 500 nM added after PMA/LPS 72 h and 4 days MCSF+DEX, FIG. 4B): reduction in expression; expression of CD163+ monocytes (MONO-MAC-1 cells; antagonist 500 nM added after PMA/LPS 72 h and 4 days MCSF+DEX, FIG. 4C): significantly decreases expression |
| IFN γ: cytokine inducer of IDO enzyme induction (protein, UniProt P01579 24-161, looked up) Interferon gamma: QDPYVKEAENLKKYFNAGHSDVADNGTLFLGILKNWKEESDRKIMQSQIVSFYFKLFKNFKDDQSIQKSVETIKEDMNVKFFNSNKKKRDDFEKLTNYSVTDLNVQRKAIHELIQVMAELSPAAKTGKRKRSQMLFRG | – | further increase the expression | further increase the expression | increase | increase MCP-1 | tryptophan concentration ([1]; added to the combination of PMA, LPS, MCSF and DEX, FIG. 7A): decreased; kynurenine concentration ([1]; added to the combination of PMA, LPS, MCSF and DEX, FIG. 7B): increased |
| macrophage colony-stimulating factor (protein, UniProt P09603 33-554, looked up) Macrophage colony-stimulating …: EEVSEYCSHMIGSGHLQSLQRLIDSQMETSCQITFEFVDQEQLKDPVCYLKKAFLLVQDIMEDTMRFRDNTPNAIAIVQLQELSLRLKSCFTKDYEEHDKACVRTFYETPLQLLEKVKNVFNETKNLLDKDWNIFSKNCNNSFAECSSQDVVTKPDCNCLYPKAIPSSDPASVSPHQPLAPSMAPVAGLTWEDSEGTEGSSLLPGEQPLHTVDPGSAKQRPPRSTCQSFEPPETPVVKDSTIGGSPQPRPSVGAFNPGMEDILDSAMGTNWVPEEASGEASEIPVPQGTELSPSRPGGGSMQTEPARPSNFLSASSPLPASAKGQQPADVTGTALPRVGPVRPTGQDWNHTPQKTDHPSALLRDPPEPGSPRISSLRPQGLSNPSTLSAQPQLSRSHSSGSVLPLGELEGRRSTRDRRSPAEPEGGPASEGAARPLPRFNSVPLTDTGHERQSEGSFSPQLQESVFHLLVPSVILVLLAVGGLLFYRWRRRSHQEPQRADSPLEQPEGSPLTQDDRQVELPV | promotes expression | – | – | – | – | – |
